Data on 85 molecules can be found in ChEMBL document CHEMBL2218064, “Structure-activity relationship data for chemical series of antagonists of the P2X7 receptor (Supplementary Bioactivity Data for publication CHEMBL1157114)”.

The experiment deals with T1, P2X purinoceptor 7 (Homo sapiens, UniProt Q99572).
T1 sequence (Q99572 whole entry): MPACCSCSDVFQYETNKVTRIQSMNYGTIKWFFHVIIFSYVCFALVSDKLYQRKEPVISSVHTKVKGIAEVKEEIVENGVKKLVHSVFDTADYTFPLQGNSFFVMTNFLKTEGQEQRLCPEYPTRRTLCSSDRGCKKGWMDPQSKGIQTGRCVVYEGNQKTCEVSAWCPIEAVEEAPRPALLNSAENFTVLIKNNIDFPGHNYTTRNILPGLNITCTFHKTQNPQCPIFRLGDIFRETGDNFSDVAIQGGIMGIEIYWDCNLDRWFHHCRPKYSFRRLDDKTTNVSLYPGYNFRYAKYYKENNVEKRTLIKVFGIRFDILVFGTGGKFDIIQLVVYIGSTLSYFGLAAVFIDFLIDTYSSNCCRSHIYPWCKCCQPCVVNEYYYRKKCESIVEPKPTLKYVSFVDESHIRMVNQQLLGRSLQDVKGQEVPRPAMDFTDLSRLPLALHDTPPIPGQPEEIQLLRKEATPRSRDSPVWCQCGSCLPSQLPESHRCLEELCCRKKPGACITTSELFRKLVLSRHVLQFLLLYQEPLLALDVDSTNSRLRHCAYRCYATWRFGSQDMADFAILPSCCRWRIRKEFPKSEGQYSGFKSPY
Kind of experiment: SUPPLEMENTARY: Inhibition of human P2X7 receptor assessed as inhibition of ethidium bromide accumulation. Same assay as CHEMBL1103860.

For orientation: IC50 means the concentration at which inhibition is half-maximal. Regarding `CN1C[C@@H](C(=O)NCc2ccc(F)c(Cl)c2Cl)N(C)C1=O`, the IC50 is 2.51 nM.
With `CN1C[C@@H](C(=O)NCc2ccc(Cl)c(C(F)(F)F)c2)N(C)C1=O`, the concentration for half-maximal inhibition (IC50) was 50.1 nM.
Under `CN1C[C@@H](C(=O)NCc2ccc(F)c(C(F)(F)F)c2Cl)N(C)C1=O` stands 1 nM.
As for `O=C(c1cccc(C(F)(F)F)c1Cl)N1CCn2cc(C(F)(F)F)nc2C1`, the concentration for half-maximal inhibition (IC50) was 39.8 nM.
Under `O=C(c1ccc(Cl)cc1Cl)N1CCn2cc(C(F)(F)F)nc2C1` stands 794 nM.
`COc1ccnc(N2C[C@@H](C(=O)NCc3ccc(Cl)cc3Cl)N(C)C2=O)n1`: the IC50 is 20 nM.
Next, `Cc1cc(Cl)cc(Cl)c1CNC(=O)[C@@H]1CN(C)C(=O)N1C`: 0.794 nM; `CN1C(=O)N(c2ncc(Cl)cn2)C[C@H]1C(=O)NCc1ccc(Cl)cc1Cl`: 6.31 nM.
Next, `N#CCCN1CCN(C(=O)c2cccc(C(F)(F)F)c2Cl)CC1=O`: 316 nM; `CC(C#N)N1CCN(C(=O)c2cccc(C(F)(F)F)c2Cl)CC1=O` (stereo not given): 251 nM.
Under `Cc1ccc(N2C[C@@H](C(=O)NCc3ccc(Cl)cc3Cl)N(C)C2=O)cn1` stands 25.1 nM; under `Cc1ccc(N2C[C@@H](C(=O)NCc3ccc(F)c(F)c3Cl)N(C)C2=O)cn1`, 31.6 nM.
Consider `CN1C[C@@H](C(=O)NCc2ccc(Cl)cc2Cl)N(CC(F)F)C1=O`, for which the half-inhibitory concentration (IC50) is 15.8 nM.
Take `Cc1c(CNC(=O)[C@@H]2CN(C)C(=O)N2C)cccc1C(F)(F)F`: the IC50 was 1.26 nM.
Next, `Cc1cc(Cl)ccc1CNC(=O)[C@@H]1CN(C)C(=O)N1C`: 7.94 nM.
Next, `CN1C(=O)N(c2ccnc(F)c2)C[C@H]1C(=O)NCc1ccc(Cl)cc1Cl`: 31.6 nM; `CN1C[C@@H](C(=O)NCc2ccc(C#N)cc2Cl)N(C)C1=O`: 31.6 nM.
Regarding `CN1C(=O)N(c2ccnc(F)c2)C[C@H]1C(=O)NCc1ccc(F)c(F)c1Cl`, the half-maximal inhibitory concentration (IC50) was 12.6 nM.
Next, `CN1C(=O)N(c2ccnc(F)c2)C[C@H]1C(=O)NCc1cccc(C(F)(F)F)c1Cl`: 63.1 nM.
In the case of `CC(C)c1ccnc(N2C[C@@H](C(=O)NCc3ccc(Cl)cc3Cl)N(C)C2=O)n1`, the IC50 was 158 nM.
Regarding `CN1C(=O)N(c2ncccc2F)C[C@H]1C(=O)NCc1ccc(Cl)cc1Cl`, the IC50 was 2 nM.
Under `CN1C(=O)N(CC(F)F)C[C@H]1C(=O)NCc1ccc(Cl)cc1Cl` stands 2.51 nM.
Under `CN1C(=O)N(c2ccnn2C)C[C@H]1C(=O)NCc1ccc(Cl)cc1Cl` stands 10 nM.
Take `CN1C(=O)N(c2cccnc2C#N)C[C@H]1C(=O)NCc1ccc(Cl)cc1Cl`: the IC50 was 31.6 nM.
Under `Cc1ccc(N2C[C@@H](C(=O)NCc3ccc(Cl)cc3Cl)N(C)C2=O)nn1` stands 398 nM; under `CN1C(=O)N(CC(F)(F)F)C[C@H]1C(=O)NCc1ccc(Cl)cc1Cl`, 2 nM; under `CN1C(=O)N(CCF)C[C@H]1C(=O)NCc1ccc(Cl)cc1Cl`, 3.16 nM.
In the case of `CCN1C[C@@H](C(=O)NCc2ccc(Cl)cc2Cl)N(C)C1=O`, the 50% inhibitory concentration (IC50) is 3.16 nM.
`O=C(c1cccc(C(F)(F)F)c1Cl)N1CCn2c(-c3ccccc3)cnc2C1`: the half-maximal inhibitory concentration (IC50) is 6.31 nM.
As for `CN1C(=O)NC[C@H]1C(=O)NCc1c(F)cc(Cl)cc1Cl`, the 50% inhibitory concentration (IC50) is 15.8 nM.
Next, `CN1C[C@@H](C(=O)NCc2c(F)cc(Cl)cc2Cl)N(C)C1=O`: 5.01 nM; `CN1C[C@@H](C(=O)NCc2c(Cl)cc(Cl)cc2Cl)N(C)C1=O`: 0.794 nM.
`CN1C(=O)NC[C@H]1C(=O)NCc1c(Cl)cc(Cl)cc1Cl`: the half-inhibitory concentration (IC50) is 1.58 nM.
Next, `CN1C(=O)N(CC2CC2)CC1C(=O)NCc1ccc(Cl)cc1Cl` (stereo not given): 3.16 nM; `CN1C(=O)N(CC2CCC2)CC1C(=O)NCc1ccc(Cl)cc1Cl` (stereo not given): 5.01 nM.
Next, `CC(C)N1CC(C(=O)NCc2ccc(Cl)cc2Cl)N(C)C1=O` (stereo not given): 5.01 nM; `O=C(c1ccc(Cl)cc1Cl)N1CCn2c(-c3ccccc3)cnc2C1`: 20 nM.
Turning to `CN1C(=O)N(C2CCCC2)CC1C(=O)NCc1ccc(Cl)cc1Cl` (stereo not given), the IC50 was 5.01 nM.
Next, `O=C(c1cccc(C(F)(F)F)c1Cl)N1CCn2c(Br)nnc2C1`: 7.94 nM; `Cc1ccc(N2CCCC2)cc1N1CCN(C(=O)c2cccc(C(F)(F)F)c2Cl)CC1=O`: 79.4 nM; `Cc1ccc(Br)cc1N1CCN(C(=O)c2cccc(C(F)(F)F)c2Cl)CC1=O`: 39.8 nM.
For the molecule `Cc1ccc(-c2ccc(C)c(N3CCN(C(=O)c4cccc(C(F)(F)F)c4Cl)CC3=O)c2)cn1`, the 50% inhibitory concentration (IC50) was 39.8 nM.
Next, `Cc1c(N2CCCC2)cccc1N1CCN(C(=O)c2cccc(C(F)(F)F)c2Cl)CC1=O`: 10 nM; `O=C(c1cccc(Cl)c1Cl)N1CCN(c2cc(N3CCOCC3)ccc2Cl)C(=O)C1`: 5.01 nM.
Next, `O=C(c1c(Cl)cc(Cl)cc1Cl)N1CCN(c2cc(N3CCOCC3)ccc2Cl)C(=O)C1`: 10 nM; `O=C(c1cccc(C(F)(F)F)c1Cl)N1CCN(c2cc(N3CCOCC3)ccc2Cl)C(=O)C1`: 7.94 nM.
Under `O=C(c1cccc(C(F)(F)F)c1Cl)N1CCn2c(nnc2-c2ccccc2)C1` stands 3.16 nM; under `O=C(c1cccc(C(F)(F)F)c1Cl)N1CCn2c(nnc2N2CCCC2)C1`, 15.8 nM; under `O=C(c1ccccc1Cl)N1CCn2c(-c3ccccc3)cnc2C1`, 50.1 nM.
For the molecule `O=C(c1cccc(Cl)c1Cl)N1CCn2c(-c3ccccc3)cnc2C1`, the IC50 is 5.01 nM.
For `O=C(c1ccc(F)cc1Cl)N1CCn2c(-c3ccccc3)cnc2C1`, the 50% inhibitory concentration (IC50) was 15.8 nM.
Under `O=C(c1c(Cl)cc(Cl)cc1Cl)N1CCn2c(-c3ccccc3)cnc2C1` stands 12.6 nM; under `O=C(c1cccc(C(F)(F)F)c1Cl)N1CCn2c(nnc2N2CCOCC2)C1`, 251 nM.
`CN(C)c1nnc2n1CCN(C(=O)c1cccc(C(F)(F)F)c1Cl)C2`: the IC50 is 20 nM.
With `O=C(c1cccc(C(F)(F)F)c1Cl)N1CCN(c2cccc(N3CCOCC3)c2Cl)C(=O)C1`, the IC50 is 12.6 nM.
In the case of `O=C(c1cccc(C(F)(F)F)c1Cl)N1CCn2c(-c3ccc(F)cc3)cnc2C1`, the IC50 is 12.6 nM.
Next, `Cc1c(N2CCOCC2)cccc1N1CCN(C(=O)c2cccc(Cl)c2Cl)CC1=O`: 15.8 nM.
Next, `Cc1c(N2CCOCC2)cccc1N1CCN(C(=O)c2cccc(C(F)(F)F)c2Cl)CC1=O`: 12.6 nM.
Under `Cc1c(N2CCOCC2)cccc1N1CCN(C(=O)c2c(Cl)cc(Cl)cc2Cl)CC1=O` stands 39.8 nM.
For `Cc1nnc2n1CCN(C(=O)c1cccc(C(F)(F)F)c1Cl)C2`, the IC50 was 31.6 nM.
Next, `Cc1ccc(N2CCC(O)C2)cc1N1CCN(C(=O)c2cccc(C(F)(F)F)c2Cl)CC1=O` (stereo not given): 10 nM.
Take `Cc1ccc(-c2cccc(N3CCN(C(=O)c4cccc(C(F)(F)F)c4Cl)CC3=O)c2C)cn1`: the IC50 is 50.1 nM.
In the case of `CCc1nnc2n1CCN(C(=O)c1cccc(C(F)(F)F)c1Cl)C2`, the IC50 was 31.6 nM.
Next, `O=C(c1cccc(C(F)(F)F)c1Cl)N1CCn2c(Br)cnc2C1`: 10 nM.
Next, `O=C(c1cccc(C(F)(F)F)c1Cl)N1CCn2c(nnc2-c2cccnc2)C1`: 6.31 nM; `Cc1ccccc1-c1cnc2n1CCN(C(=O)c1cccc(C(F)(F)F)c1Cl)C2`: 100 nM.
On to `COc1nnc2n1CCN(C(=O)c1cccc(C(F)(F)F)c1Cl)C2`, for which the IC50 is 79.4 nM.
`CNc1nnc2n1CCN(C(=O)c1cccc(C(F)(F)F)c1Cl)C2`: the IC50 is 251 nM.
Under `O=C(c1cccc(C(F)(F)F)c1Cl)N1CCn2c(nnc2N2CCC2)C1` stands 25.1 nM; under `O=C(c1cccc(C(F)(F)F)c1Cl)N1CCn2c(nnc2N2CCCCC2)C1`, 100 nM; under `CC(c1ccccc1)N1CCN(C(=O)c2cccc(C(F)(F)F)c2Cl)CC1=O` (stereo not given), 31.6 nM.
Take `O=C(c1cccc(C(F)(F)F)c1Cl)N1CCn2c(nc(I)c2I)C1`: the IC50 is 6.31 nM.
Next, `O=C(c1cccc(C(F)(F)F)c1Cl)N1CCn2c(nnc2-c2ccncc2)C1`: 25.1 nM.
Next, `O=C(c1cccc(C(F)(F)F)c1Cl)N1CCn2c(I)cnc2C1`: 3.98 nM.
Next, `Cc1cnc2n1CCN(C(=O)c1cccc(C(F)(F)F)c1Cl)C2`: 50.1 nM.
In the case of `O=C(c1cccc(C(F)(F)F)c1Cl)N1CCn2c(nc(C(F)(F)F)c2Br)C1`, the IC50 was 5.01 nM.
For the molecule `O=C(c1cccc(Cl)c1Cl)N1CCn2c(Br)nnc2C1`, the IC50 was 50.1 nM.
Next, `O=C(c1cccc(C(F)(F)F)c1Cl)N1CCn2c(nc(C(F)(F)F)c2-c2ccccc2)C1`: 50.1 nM; `O=C(c1ccc(Cl)cc1Cl)N1CCn2c(Br)nnc2C1`: 200 nM; `O=C(c1c(Cl)cc(Cl)cc1Cl)N1CCn2c(Br)nnc2C1`: 398 nM.
Under `O=C(c1cccc(C(F)(F)F)c1F)N1CCn2c(Br)nnc2C1` stands 79.4 nM.
`Cc1cn2c(n1)CN(C(=O)c1cccc(C(F)(F)F)c1Cl)CC2`: the IC50 was 126 nM.
For `Cc1cn2c(n1)CN(C(=O)c1cccc(Cl)c1Cl)CC2`, the IC50 was 316 nM.
Under `O=C(c1cccc(C(F)(F)F)c1Cl)N1CCn2c(-c3cccc(C(F)(F)F)c3Cl)cnc2C1` stands 631 nM; under `O=C(c1cccc(C(F)(F)F)c1Cl)N1CCn2c(-c3ccc(Cl)cc3)cnc2C1`, 251 nM.
